“Also recorded” adds a separate entry of the source.
Legend:
[1] = cited from earlier work
[2] = in vivo; cited from earlier work
Caco-2 cell monolayers = experiment: Azithromycin transport across Caco-2 cell monolayers, with and without P-glycoprotein inhibitors; assay type: in vitro ADME
Method: Caco-2 cell monolayers were grown on permeable transwell-col filter supports (24.5 mm diameter, 0.45 μm pore size) and used in these studies at day 21-24. 2 mls of 0.4 μM ^14C Azithromycin in Hank's balanced salt solution (HBSS) was added to the donor chamber and 2 mls of HBSS was added to the acceptor chamber. An impermeable marker, ^3H Mannitol, was included in these studies to ensure the monolayers were intact. […] Transport was monitored in the apical to basolateral (absorptive) and basolateral to apical (secretory) direction. The wells were incubated for 1 hour (unstirred) at 37° C. Samples were removed after the incubation period and analyzed by dual label LSC. The transport was calculated as percent flux/hr. [formula]
Transport measurements were made in controls, implemented in like fashion except no test compound was included.

[3] = humans, no p-gp inhibitor; cited from earlier work
[4] = in vivo; cited from earlier work; remark: listed apart in the source
[5] = dog, intravenous radiolabeled dose; cited from earlier work
[6] = test system: CACO-2 (colon carcinoma) cells; settings: cultured CACO-2 cells; cited from earlier work
clinical = settings: human, serum, po, 1200 mg
Method: (§1) Healthy volunteers received nelfinavir for 11 days. On Day 9 a single dose of azithromycin was administered. Each subject also received a single control dose of 1200 mg azithromycin either two weeks before the start of a nelfinavir treatment regimen or three weeks after a nelfinavir treatment regimen.
(§2) Nelfinavir was administered as 3 commercial 250 mg tablets, 3 times per day (morning dose at approximately 7 am; afternoon dose at approximately 3 pm; evening dose at approximately 10 pm) with food for 11 days. On day 9, azithromycin (1200 mg) was dosed as 2 600 mg commercial tablets at the same time as the morning dose of nelfinavir. On day 9 the subjects, who were previously fasted for at least 8 hr, consumed a standard breakfast consisting of cereal and/or toast with butter and jelly, and milk. Immediately following the standard breakfast, the subjects consumed 750 mg nelfinavir and 1200 mg azithromycin, with 120 ml water. On the day on which azithromycin alone was dosed, 2 600 mg commercial tablets were dosed with 120 ml water, immediately following the standard breakfast.
(§3) Serum samples were assayed for azithromycin utilizing LC/MS/MS. […] Concentrations below the lower limits of quantification were utilized as 0.00 μg/ml in the calculations.
(§4) Maximum observed azithromycin concentrations (Cmax) were determined by inspection of the data. Tmax was defined as the time of first occurrence of Cmax. […] Area under the serum concentration versus time curves (AUClast) were calculated for the interval of pre-dose to the last time at which concentrations of azithromycin were measurable. Total exposure was estimated as AUC for the interval of pre-dose to infinity. AUC=AUClast+C*last/kei, where C*last is the concentration estimated from the aforementioned regression at the time of the last quantifiable concentration of drug.
(§5) Geometric mean values of Cmax, AUC, Cmax ratios, and AUC ratios were determined. Arithmetic means of other parameters were determined.

[7] = Effect of nelfinavir on the pharmacokinetics of a single oral dose of azithromycin (crossover study); settings: co-administration with nelfinavir vs azithromycin alone
Method: as §1, §2, §3, §4, §5

Row | SMILES | increase in midazolam AUC ([1]; midazolam co-dosed with erythromycin (Zimmerman et al.)) [%] | interaction with (effect on plasma levels of) HIV protease inhibitors saquinavir, ritonavir, indinavir, nelfinavir [2] | substrate for the P-glycoprotein efflux transporter (Caco-2 cell monolayers; Caco-2) | % Flux/hr B-A (Caco-2 cell monolayers; human, Caco-2, 1 h, 0.4 μM) [% flux/hr] | % flux/hr A-B (Caco-2 cell monolayers; human, Caco-2, 1 h, 0.4 μM) [% flux/hr] | oral bioavailability [3] [%] | elimination half-life [4] [h] | recovered radiolabel eliminated across the intestinal wall [5] [%] | effect on midazolam plasma levels ([1]; co-dosed with midazolam (Zimmerman et al.; Backman et al.)) | basolateral-to-apical azithromycin flux versus apical-to-basolateral flux [6] | AUC(0-inf) (clinical) [ng·h/mL] | Cmax (clinical) [ng/mL] | increase of mean AUC0-∞ for azithromycin ([7]; p=0.0001) [%] | increase of mean Cmax ([7]; p=0.0003) [%]
1 | CC[C@H]1OC(=O)[C@H](C)[C@@H](O[C@H]2C[C@@](C)(OC)[C@@H](O)[C@H](C)O2)[C@H](C)[C@@H](O[C@@H]2O[C@H](C)C[C@H](N(C)C)[C@H]2O)[C@](C)(O)C[C@@H](C)C(=O)[C@H](C)[C@@H](O)[C@]1(C)O [erythromycin] | 380 | – | – | – | – | – | – | – | – | – | – | – | – | –
2 | CC[C@H]1OC(=O)[C@H](C)[C@@H](O[C@H]2C[C@@](C)(OC)[C@@H](O)[C@H](C)O2)[C@H](C)[C@@H](O[C@@H]2O[C@H](C)C[C@H](N(C)C)[C@H]2O)[C@](C)(OC)C[C@@H](C)C(=O)[C@H](C)[C@@H](O)[C@]1(C)O [clarithromycin] | – | exhibit an interaction with all but nelfinavir | – | – | – | – | – | – | – | – | – | – | – | –
3 | CC[C@H]1OC(=O)[C@H](C)[C@@H](O[C@H]2C[C@@](C)(OC)[C@@H](O)[C@H](C)O2)[C@H](C)[C@@H](O[C@@H]2O[C@H](C)C[C@H](N(C)C)[C@H]2O)[C@](C)(O)C[C@@H](C)CN(C)[C@H](C)[C@@H](O)[C@]1(C)O [Azithromycin, 9a-aza-9a-methyl-9deoxo-9a-homoerythromycin A] | – | does not interact | is a substrate | 6.6 | 0.1 | 37 | 69 | 40 | no effect; also recorded: did not increase | exceeded | 11500 | 889 | 112 | 137
